Measured values published in ChEMBL document CHEMBL1130810, “Potent, selective benzenesulfonamide agonists of the human beta 3 adrenergic receptor” (Bioorg Med Chem Lett, 1998).

Key:
[1] = target: Beta-3 adrenergic receptor (Homo sapiens, UniProt P13945); assay: Agonist activity against cloned human beta-3 adrenergic receptor; format: functional
[2] = target: T1, Beta-2 adrenergic receptor (Homo sapiens, UniProt P07550); assay: biochemical
Target sequence in this assay (P07550 whole entry): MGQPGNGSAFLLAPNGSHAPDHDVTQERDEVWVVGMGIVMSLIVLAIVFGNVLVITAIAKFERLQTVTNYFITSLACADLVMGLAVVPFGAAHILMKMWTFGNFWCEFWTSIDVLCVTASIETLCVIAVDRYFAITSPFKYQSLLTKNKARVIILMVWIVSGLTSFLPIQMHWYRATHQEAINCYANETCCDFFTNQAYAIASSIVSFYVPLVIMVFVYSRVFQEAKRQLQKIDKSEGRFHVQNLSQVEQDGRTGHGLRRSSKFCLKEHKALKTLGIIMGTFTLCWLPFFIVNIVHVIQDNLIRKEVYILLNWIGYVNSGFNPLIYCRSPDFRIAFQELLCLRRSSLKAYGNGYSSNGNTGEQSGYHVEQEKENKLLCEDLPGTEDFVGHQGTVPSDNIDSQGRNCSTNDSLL
Description: Binding affinity against cloned human beta-2 adrenergic receptor from CHO cells using [125I]iodocyanopindolol as the radioligand

[3] = target: T2, Beta-1 adrenergic receptor (Homo sapiens, UniProt P08588); assay: biochemical
T2 sequence (P08588 whole entry): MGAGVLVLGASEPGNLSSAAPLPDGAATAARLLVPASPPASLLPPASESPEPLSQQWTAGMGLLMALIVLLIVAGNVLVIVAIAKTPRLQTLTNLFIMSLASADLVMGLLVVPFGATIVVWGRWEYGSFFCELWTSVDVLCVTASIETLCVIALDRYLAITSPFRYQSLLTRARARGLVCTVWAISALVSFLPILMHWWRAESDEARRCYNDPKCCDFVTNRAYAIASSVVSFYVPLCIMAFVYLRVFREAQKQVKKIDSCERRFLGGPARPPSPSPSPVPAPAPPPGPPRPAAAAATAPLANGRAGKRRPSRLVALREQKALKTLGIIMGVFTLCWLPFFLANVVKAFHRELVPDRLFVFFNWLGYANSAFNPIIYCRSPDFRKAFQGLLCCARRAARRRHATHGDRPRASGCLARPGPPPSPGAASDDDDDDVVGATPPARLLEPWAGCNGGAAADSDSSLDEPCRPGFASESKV

[4] = target: T2, Beta-1 adrenergic receptor; assay: Compound was tested for binding affinity against cloned human beta-1 adrenergic receptor from CHO cells using [125I]-iodocyanopindolol as radioligand; format: cell-based
[5] = target: T2, Beta-1 adrenergic receptor; assay: Tested for binding affinity against cloned human beta-1 adrenergic receptor from CHO cells using [125I]iodocyanopindolol as the radioligand.; format: cell-based
[6] = target: T2, Beta-1 adrenergic receptor; assay: (§1) Compound was tested for agonist activity against cloned human beta-1 adrenergic receptor; format: functional
[7] = target: T1, Beta-2 adrenergic receptor; assay: Agonist activity against cloned human beta-2 adrenergic receptor as percent activation of adenyl cyclase activity at a concentration of 1000 nM; format: functional
Target sequence in this assay (P07550 whole entry, looked up): as the sequence (P07550 whole entry) above

[8] = target: T1, Beta-2 adrenergic receptor; assay: Compound was tested for agonist activity against cloned human beta-2 adrenergic receptor; format: functional
Target sequence in this assay (P07550 whole entry): as above

[9] = target: T1, Beta-2 adrenergic receptor; assay: Compound was tested for agonist activity against cloned human beta-2 adrenergic receptor at a concentration of 1000 nM; format: functional
Target sequence in this assay (P07550 whole entry, looked up): as the sequence (P07550 whole entry) above

[10] = target: T2, Beta-1 adrenergic receptor; assay: as §1

Chain of Beta-3 adrenergic receptor (P13945 whole entry): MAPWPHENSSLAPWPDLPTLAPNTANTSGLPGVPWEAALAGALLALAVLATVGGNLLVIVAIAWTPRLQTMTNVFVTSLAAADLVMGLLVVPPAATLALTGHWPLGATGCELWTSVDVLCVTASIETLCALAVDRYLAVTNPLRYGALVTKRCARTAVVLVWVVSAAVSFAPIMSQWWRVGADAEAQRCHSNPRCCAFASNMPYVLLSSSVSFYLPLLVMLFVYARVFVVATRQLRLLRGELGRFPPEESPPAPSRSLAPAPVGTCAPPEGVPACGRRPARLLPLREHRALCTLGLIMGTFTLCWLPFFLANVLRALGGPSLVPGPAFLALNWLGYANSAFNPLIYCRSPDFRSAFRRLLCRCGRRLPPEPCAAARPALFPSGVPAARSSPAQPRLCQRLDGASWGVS

EC50 [1] | IC50 [2] | IC50 [3] | SMILES | other results
6.3 nM | 190 nM | 180 nM | O=S(=O)(Nc1ccc(CCNC[C@H](O)COc2ccc(O)cc2)cc1)c1ccccc1 | 
200 nM | 20 nM |  | COc1ccc(CC[C@H](C)NC[C@H](O)COc2ccc(O)cc2)cc1 | IC50 [4]: 10 nM
4.3 nM | 190 nM |  | COc1ccc(S(=O)(=O)Nc2ccc(CCNC[C@H](O)COc3ccc(O)cc3)cc2)cc1 | IC50 [5]: 140 nM
30 nM | 150 nM | 900 nM | Oc1ccc(CCNC[C@H](O)COc2ccc(O)cc2)cc1 | 
1500 nM | 3000 nM | 2000 nM | O=S(=O)(Nc1ccc(CCNC[C@H](O)COc2ccc(O)cc2)cc1)C1CCCCC1 | EC50 [6]: 1200 nM
58 nM | 3000 nM | > 10000 nM | O=S(=O)(Nc1ccc(CCNC[C@H](O)COc2ccc(O)cc2)cc1)c1ccc(Cl)c(Cl)c1 | 
2000 nM |  |  | COc1ccc(CC[C@H](C)NC[C@@H](O)COc2ccc(O)cc2)cc1 | 
54 nM | 100 nM | 610 nM | O=S(=O)(Nc1ccc(CCNC[C@H](O)COc2ccc(O)cc2)cc1)c1ccccc1Cl | Activity [7]: 2%
4000 nM | 250 nM | 1000 nM | CCCCCS(=O)(=O)Nc1ccc(CCNC[C@H](O)COc2ccc(O)cc2)cc1 | 
0.77 nM | 180 nM | 510 nM | O=S(=O)(Nc1ccc(CCNC[C@H](O)COc2ccc(O)cc2)cc1)c1ccc(Br)cc1 | EC50 [6]: 340 nM
62 nM | 230 nM | 6.7 nM | O=C(Nc1ccc(CCNC[C@H](O)COc2ccc(O)cc2)cc1)c1ccccc1 | 
25 nM | 58 nM | 100 nM | CC(C)S(=O)(=O)Nc1ccc(CCNC[C@H](O)COc2ccc(O)cc2)cc1 | 
12 nM | 10 nM | 15 nM | C[C@@H](CCc1ccc(O)cc1)NC[C@H](O)COc1ccc(O)cc1 | 
440 nM | 500 nM | 1000 nM | Nc1ccc(CCNC[C@H](O)COc2ccc(O)cc2)cc1 | 
15 nM | 370 nM |  | O=S(=O)(Nc1ccc(CCNC[C@H](O)COc2ccc(O)cc2)cc1)c1cccc(Cl)c1 | IC50 [5]: 1000 nM
600 nM | 63 nM |  | COc1ccc(CCCNC[C@H](O)COc2ccc(O)cc2)cc1 | IC50 [6]: 15 nM
600 nM |  |  | COc1ccc(CC[C@@H](C)NC[C@H](O)COc2ccc(O)cc2)cc1 | EC50 [8]: 5 nM
110 nM | 220 nM | 830 nM | CS(=O)(=O)Nc1ccc(CCNC[C@H](O)COc2ccc(O)cc2)cc1 | 
60 nM | 500 nM | 1000 nM | CCCS(=O)(=O)Nc1ccc(CCNC[C@H](O)COc2ccc(O)cc2)cc1 | Max stimulation [9]: 4%
4.8 nM | 280 nM |  | O=S(=O)(Nc1ccc(CCNC[C@H](O)COc2ccc(O)cc2)cc1)c1ccc(Cl)cc1 | EC50 [6]: 450 nM; IC50 [5]: 1000 nM
2.6 nM | 170 nM |  | Cc1ccc(S(=O)(=O)Nc2ccc(CCNC[C@H](O)COc3ccc(O)cc3)cc2)cc1 | IC50 [5]: 150 nM
6000 nM |  |  | COc1ccc(CC[C@@H](C)NC[C@@H](O)COc2ccc(O)cc2)cc1 | EC50 [8]: 30 nM

SMILES | EC50 [1] | IC50 [2] | IC50 [3] | other results
C[C@@H](Cc1ccc(O)cc1)NC[C@H](O)COc1ccc(O)cc1 | 25 nM | 84 nM | 81 nM | 
O=S(=O)(Cc1ccccc1)Nc1ccc(CCNC[C@H](O)COc2ccc(O)cc2)cc1 | 39 nM | 21 nM | 60 nM | 
COc1ccc(C[C@H](C)NC[C@H](O)COc2ccc(O)cc2)cc1 | 1000 nM |  |  | 
O=S(=O)(CCCc1ccccc1)Nc1ccc(CCNC[C@H](O)COc2ccc(O)cc2)cc1 | 92 nM | 130 nM | 1000 nM | 
CC(=O)Nc1ccc(CCNC[C@H](O)COc2ccc(O)cc2)cc1 | 27 nM | 11 nM | 25 nM | 
O=S(=O)(CCc1ccccc1)Nc1ccc(CCNC[C@H](O)COc2ccc(O)cc2)cc1 | 5.9 nM | 120 nM | 110 nM | 
O=S(=O)(Nc1ccc(CCNC[C@H](O)COc2ccc(O)cc2)cc1)c1cnc2ccccc2c1 |  | 240 nM |  | IC50 [5]: 500 nM; EC50 [10]: 300 nM
O=S(=O)(Nc1ccc(CCNC[C@H](O)COc2ccc(O)cc2)cc1)c1ccc2ccccc2c1 | 5.4 nM | 630 nM |  | IC50 [5]: 9000 nM
